Data: ChEMBL document CHEMBL5230135, “Peptide Ligands Specifically Targeting HER2 Receptor and the Role Played by a Synthetic Model System of the Receptor Extracellular Domain: Hypothesized Future Perspectives” (J Med Chem, 2020)
pKd: −log10 of the molar value. Where a SMILES comes first, the peptide text is derived from it.

What was measured:
[1] = molecular target: T1, Receptor tyrosine-protein kinase erbB-2 (Homo sapiens, UniProt P04626); experiment: Binding affinity to HER2 in human BT-474 cells assessed as dissociation constant by measuring high affinity ligand binding site by LigandTracer technique; assay type: cell-based
T1 sequence (P04626 whole entry): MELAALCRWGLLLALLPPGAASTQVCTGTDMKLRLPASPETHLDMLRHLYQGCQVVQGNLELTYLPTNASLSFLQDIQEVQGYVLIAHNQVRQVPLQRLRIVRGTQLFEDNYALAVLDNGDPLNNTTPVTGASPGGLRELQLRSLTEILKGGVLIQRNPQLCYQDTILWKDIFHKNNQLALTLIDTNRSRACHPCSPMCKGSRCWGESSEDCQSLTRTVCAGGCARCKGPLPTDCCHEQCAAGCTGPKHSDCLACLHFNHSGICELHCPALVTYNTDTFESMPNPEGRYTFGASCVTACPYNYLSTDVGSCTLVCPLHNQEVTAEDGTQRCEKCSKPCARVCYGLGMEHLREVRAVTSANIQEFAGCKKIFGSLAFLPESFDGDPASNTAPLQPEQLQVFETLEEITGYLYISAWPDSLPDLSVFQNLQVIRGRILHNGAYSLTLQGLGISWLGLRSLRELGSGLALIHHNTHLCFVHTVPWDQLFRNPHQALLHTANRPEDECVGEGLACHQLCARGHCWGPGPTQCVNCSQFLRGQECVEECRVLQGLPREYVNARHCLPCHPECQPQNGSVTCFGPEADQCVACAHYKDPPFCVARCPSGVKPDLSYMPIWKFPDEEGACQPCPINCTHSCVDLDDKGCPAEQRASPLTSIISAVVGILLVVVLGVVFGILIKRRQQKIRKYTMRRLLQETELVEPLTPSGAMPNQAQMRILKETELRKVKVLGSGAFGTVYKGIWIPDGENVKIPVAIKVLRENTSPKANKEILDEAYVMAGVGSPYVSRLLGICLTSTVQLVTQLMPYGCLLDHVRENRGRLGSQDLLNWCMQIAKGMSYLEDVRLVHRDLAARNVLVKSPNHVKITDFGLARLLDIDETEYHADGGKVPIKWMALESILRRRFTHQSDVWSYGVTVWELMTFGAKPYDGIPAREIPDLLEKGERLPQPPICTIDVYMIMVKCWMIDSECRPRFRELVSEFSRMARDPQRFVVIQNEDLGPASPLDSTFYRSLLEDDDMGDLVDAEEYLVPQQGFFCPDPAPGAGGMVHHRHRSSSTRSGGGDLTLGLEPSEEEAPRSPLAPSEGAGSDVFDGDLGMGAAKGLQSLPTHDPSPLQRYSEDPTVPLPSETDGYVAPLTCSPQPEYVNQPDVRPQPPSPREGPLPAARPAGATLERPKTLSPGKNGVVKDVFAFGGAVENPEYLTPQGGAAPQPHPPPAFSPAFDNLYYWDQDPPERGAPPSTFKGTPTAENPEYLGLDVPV

[2] = molecular target: T1, Receptor tyrosine-protein kinase erbB-2; experiment: Binding affinity to HER2 in human BT474 cells assessed as dissociation constant by measuring low affinity ligand binding site by LigandTracer technique; assay type: cell-based, BT-474
[3] = Biodistribution in lung of BALB/c nu/nu mouse measured in organ after 1 hr; assay type: ADME, organism-based; settings: in vivo
[4] = Biodistribution in liver of BALB/c nu/nu mouse measured in organ after 1 hr; assay type: ADME, organism-based; settings: in vivo
[5] = Biodistribution in spleen of BALB/c nu/nu mouse measured in organ after 1 hr; assay type: ADME, organism-based; settings: in vivo
[6] = Biodistribution in stomach of BALB/c nu/nu mouse measured in organ after 1 hr; assay type: ADME, organism-based; settings: in vivo
[7] = Biodistribution in pancreas of BALB/c nu/nu mouse measured in organ after 1 hr; assay type: ADME, organism-based; settings: in vivo
[8] = Biodistribution in brain of BALB/c nu/nu mouse measured in organ after 1 hr; assay type: ADME, organism-based; settings: in vivo
[9] = Biodistribution in kidney of BALB/c nu/nu mouse measured in organ after 1 hr; assay type: ADME, organism-based; settings: in vivo
[10] = Biodistribution in muscle of BALB/c nu/nu mouse measured in organ after 1 hr; assay type: ADME, organism-based; settings: in vivo
[11] = Biodistribution in bone of BALB/c nu/nu mouse measured in organ after 1 hr; assay type: ADME, organism-based, Bone element; settings: in vivo
[12] = Biodistribution in Gastrointestinal tract of BALB/c nu/nu mouse measured in organ after 1 hr; assay type: ADME, organism-based; settings: in vivo
[13] = Biodistribution in Carcass of BALB/c nu/nu mouse measured in organ after 1 hr; assay type: ADME, organism-based; settings: in vivo

**Q.** With `CC(C)[C@H](NC(=O)[C@H](C)NC(=O)[C@@H](NC(=O)[C@H](CC(N)=O)NC(=O)[C@@H](NC(=O)[C@H](CC(=O)O)NC(=O)[C@H](CCC(N)=O)NC(=O)CN(CCN(CCN(CC(=O)O)CC(=O)O)CC(=O)O)CC(=O)O)C(C)C)[C@@H](C)O)C(=O)N[C@@H](C)C(=O)N[C@@H](Cc1c[nH]c2ccccc12)C(N)=O` (HELM PEPTIDE1{[O=C(O)CN(CCN(CC(=O)O)CC(=O)O)CCN(CC(=O)O)CC(=O)[*:2]].Q.D.V.N.T.A.V.A.W.[am]}$$$$V2.0) as the molecule, how does the pKd [1] read?
**A.** 8.31

**Q.** What about the pKd [2] of the same molecule?
**A.** 6.99

**Q.** What about the Drug uptake [3] of the same molecule?
**A.** 0.06 %ID

**Q.** What about the Drug uptake [4] of the same molecule?
**A.** 0.47 %ID

**Q.** And the Drug uptake [5]?
**A.** 0.02 %ID

**Q.** What about the Drug uptake [6] of the same molecule?
**A.** 0.05 %ID

**Q.** What about the Drug uptake [7] of the same molecule?
**A.** 0.01 %ID

**Q.** What about the Drug uptake [8] of the same molecule?
**A.** 0 %ID

**Q.** What about the Drug uptake [9] of the same molecule?
**A.** 2 %ID

**Q.** And the Drug uptake [10]?
**A.** 0.04 %ID

**Q.** And the Drug uptake [11]?
**A.** 0.01 %ID

**Q.** What about the Drug uptake [12] of the same molecule?
**A.** 0.83 %ID

**Q.** What about the Drug uptake [13] of the same molecule?
**A.** 3.47 %ID
